The source of these data is patent US20080045521A1, “PHENYLALANINE DERIVATIVES” (AstraZeneca AB, priority 2006, published 2008).

One assay deals with recombinant human α5β1 (Homo sapiens, UniProt P05556+P08648). Put plainly: In vitro binding assay (a): inhibition of binding of α5β1 integrin to a fragment of human fibronectin (Fn9-10), Origen electrochemiluminescence. As to conditions: geometric mean of the measured IC50 values; n = number of tests. The text has this:
(a) In Vitro Binding Assay
The assay determined the ability of compounds to inhibit binding of α5β1 integrin to a cognate ligand, a fragment of human fibronectin. The assay used Origen technology (IGEN International) to measure the compound activity. Briefly, α5β1 integrin was coated onto epoxy-paramagnetic beads (Dynal Biotech UK, Bromborough, Wirral, CH62 3QL, UK, Catalogue No 140.11) and biotinylated-fibronectin ligand was coupled to strepatividin labeled Tag-NHS-Ester (BioVeris Corporation, Witney, Oxfordshire, OX28 4GE, UK, Catalogue No 110034). The ruthenium-labeled tag emits an electrochemiluminescence signal upon stimulation which is detected by the Origen reader. […]
20 μg of recombinant human α5β1 was coated onto 4×10(7) epoxy-paramagnetic beads according to manufacturers instructions at 4° C. for 24 hours. Integrin coating and corresponding activity was subsequently measured for each batch but typically, 25 ng of coated protein was used per assay well. […]
For the assay, 25 ng (20 ul) of a5b 1-bead suspension and 40 μl of the Fn9-10/Tag pre-incubated solution were added to each well containing 20 μl of compound or control solution. Assay plates were then incubated at room temperature for a minimum of 6 hours before being analysed on an Origen plate reader. […]

Assay [1] concerns the target T1, α5β1 integrin mediated adhesion of K562 cells (Homo sapiens, UniProt P05556+P08648).
T1 construct: host or cells: K562 human erythroleukaemia cells
In words: In vitro cell adhesion assay (b): inhibition of adhesion of K562 cells to fibronectin fragment Fn9-10, crystal violet stain. The class given is cell-based. Conditions: for IC50: K562 cells on Fn9-10, geometric mean of the measured IC50 values, n = number of tests; for activity in the cell adhesion assay (b): K562 cells, result in words. The source says: (b) In Vitro Cell Adhesion Assay
The assay determined the ability of compounds to inhibit the α5β1 integrin mediated adhesion of K562 cells to the ligand, a fragment of human fibronectin. The human K562 erythroleukaemia cell line (LGC Promochem, Teddington, Middlesex, UK, Catalogue No. CCL-243) was routinely maintained in RPMI 1640 medium (Sigma-Aldrich Company Ltd, Gillingham, Dorset SP8 4XT, Catalogue No. R0883) containing 10% heat-inactivated foetal calf serum (PAA lab GmbH, Pasching, Austria Catalogue No. PAA-A15-043) and 1% glutamax-1 (Invitrogen Ltd. Paisley, UK Catalogue No. 35050-038) at 37° C. with 5% CO2 at densities between 1×10^5 and 1×10^6 cells/ml.
A DNA fragment encoding the domains 9-10 (amino-acids 1325-1509) of human fibronectin (Swiss-Prot Accession No. P02751) was isolated from cDNA libraries using standard molecular biology and PCR cloning techniques. The cDNA fragment was sub-cloned into a pT7#3.3 expression vector containing a GST-epitope tag (developed at AstraZeneca; Bagnall et al., Protein Expression and Purification, 2003, 27: 1-11), and the fragment termed Fn9-10. Following expression in E. coli, the expressed protein was purified using the GST-tag using standard purification techniques.
For adhesion assay, a 96-well flat bottomed plate (Greiner Bio one ltd., Gloucester GL10 3 SX Catalogue No. 655101) was coated overnight at 4° C. with 100 μl of 20 μg/ml Fn9-10 ligand in Dulbecco's PBS (Gibco#14190-94). The plate was then washed twice with 200 μl of PBS and blocked with 100 μl of 3% BSA (SigmaA7888) in PBS for 1 hour at 37° C. The plates were then washed again 3 times with 200 μl of PBS and left empty.
Test compounds were prepared as 10 mM stock solutions in DMSO (Sigma-Aldrich Company Ltd, Gillingham, Dorset SP8 4XT Catalogue No. 154938) and serially diluted with HBSS (Hanks Buffered Salt solution (Gibco Catalogue No. 14170-088)/2% DMSO to give a range of test concentrations at twice required final concentration. Aliquots (50 μl) of each compound dilution were placed into each well of the Fn9-10 coated plates. Each plate also contained control wells: maximum adhesion signal was created using wells containing 50 μl HBSS/2% DMSO, and minimum signal corresponding to no adhesion was created using wells containing 50 μl HBSS/2% DMSO /20 mM EDTA (Sigma Catalogue No. E7889). […]
After fixation, the ethanol was flicked off to waste and 100 μl of 0.1% Crystal violet stain was added to each well, and incubated at ambient temperature for 15 minutes. […] Finally, 100 μl of deionised water was added to each well and the absorbance was determined at 590 nm on a spectrophotometer. The minimum value was subtracted from all values, and the absorbance signal was plotted against compound concentration to generate IC50 data.

T1 sequence (P08648 42-894 limits assumed): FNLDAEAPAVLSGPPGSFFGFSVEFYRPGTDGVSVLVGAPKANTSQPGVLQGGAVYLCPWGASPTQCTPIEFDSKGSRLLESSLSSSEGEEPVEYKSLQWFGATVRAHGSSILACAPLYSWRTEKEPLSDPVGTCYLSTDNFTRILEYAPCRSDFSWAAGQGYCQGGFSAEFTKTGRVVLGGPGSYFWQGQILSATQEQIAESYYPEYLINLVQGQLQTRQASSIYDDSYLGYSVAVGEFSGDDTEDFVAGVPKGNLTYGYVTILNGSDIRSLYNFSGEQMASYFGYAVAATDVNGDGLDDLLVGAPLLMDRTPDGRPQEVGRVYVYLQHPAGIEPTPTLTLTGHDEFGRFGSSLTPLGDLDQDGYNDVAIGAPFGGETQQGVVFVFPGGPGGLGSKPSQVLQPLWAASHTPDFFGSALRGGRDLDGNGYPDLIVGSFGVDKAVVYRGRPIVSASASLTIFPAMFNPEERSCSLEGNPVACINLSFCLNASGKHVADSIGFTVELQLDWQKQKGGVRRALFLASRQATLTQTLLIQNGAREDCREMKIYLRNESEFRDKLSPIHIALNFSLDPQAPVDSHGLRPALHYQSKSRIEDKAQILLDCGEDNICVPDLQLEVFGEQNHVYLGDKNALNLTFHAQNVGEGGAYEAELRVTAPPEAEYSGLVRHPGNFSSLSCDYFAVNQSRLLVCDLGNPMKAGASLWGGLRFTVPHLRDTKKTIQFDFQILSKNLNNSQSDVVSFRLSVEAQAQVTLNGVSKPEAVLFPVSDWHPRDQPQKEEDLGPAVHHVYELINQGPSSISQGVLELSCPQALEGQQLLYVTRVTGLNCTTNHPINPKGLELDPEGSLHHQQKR
T1 sequence (P08648 895-1049 partner limits assumed): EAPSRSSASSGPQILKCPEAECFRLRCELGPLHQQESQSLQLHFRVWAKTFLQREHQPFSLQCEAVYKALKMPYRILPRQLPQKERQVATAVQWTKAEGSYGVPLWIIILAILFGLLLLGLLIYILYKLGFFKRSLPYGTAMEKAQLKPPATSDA
T1 sequence (P05556 21-798): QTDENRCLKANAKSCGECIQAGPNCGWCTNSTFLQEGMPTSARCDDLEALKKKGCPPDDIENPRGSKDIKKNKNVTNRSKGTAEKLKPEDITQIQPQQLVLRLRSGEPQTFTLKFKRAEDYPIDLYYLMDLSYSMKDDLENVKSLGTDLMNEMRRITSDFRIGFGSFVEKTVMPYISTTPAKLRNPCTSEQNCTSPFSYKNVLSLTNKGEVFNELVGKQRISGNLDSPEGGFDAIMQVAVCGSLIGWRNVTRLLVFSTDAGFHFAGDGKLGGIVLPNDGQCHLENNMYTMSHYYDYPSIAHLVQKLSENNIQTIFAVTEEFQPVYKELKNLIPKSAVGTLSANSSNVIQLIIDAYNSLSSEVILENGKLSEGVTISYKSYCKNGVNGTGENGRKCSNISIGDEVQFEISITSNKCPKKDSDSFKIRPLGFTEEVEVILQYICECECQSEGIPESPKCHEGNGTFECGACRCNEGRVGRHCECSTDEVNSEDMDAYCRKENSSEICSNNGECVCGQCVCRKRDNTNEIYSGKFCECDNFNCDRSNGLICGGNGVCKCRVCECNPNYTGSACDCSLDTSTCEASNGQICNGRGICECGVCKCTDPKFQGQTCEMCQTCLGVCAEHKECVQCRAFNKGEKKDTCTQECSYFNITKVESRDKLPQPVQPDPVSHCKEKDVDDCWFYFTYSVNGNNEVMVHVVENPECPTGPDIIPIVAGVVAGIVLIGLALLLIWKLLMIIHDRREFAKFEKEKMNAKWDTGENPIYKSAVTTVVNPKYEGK
Chain of recombinant human α5β1 (P08648 42-1049): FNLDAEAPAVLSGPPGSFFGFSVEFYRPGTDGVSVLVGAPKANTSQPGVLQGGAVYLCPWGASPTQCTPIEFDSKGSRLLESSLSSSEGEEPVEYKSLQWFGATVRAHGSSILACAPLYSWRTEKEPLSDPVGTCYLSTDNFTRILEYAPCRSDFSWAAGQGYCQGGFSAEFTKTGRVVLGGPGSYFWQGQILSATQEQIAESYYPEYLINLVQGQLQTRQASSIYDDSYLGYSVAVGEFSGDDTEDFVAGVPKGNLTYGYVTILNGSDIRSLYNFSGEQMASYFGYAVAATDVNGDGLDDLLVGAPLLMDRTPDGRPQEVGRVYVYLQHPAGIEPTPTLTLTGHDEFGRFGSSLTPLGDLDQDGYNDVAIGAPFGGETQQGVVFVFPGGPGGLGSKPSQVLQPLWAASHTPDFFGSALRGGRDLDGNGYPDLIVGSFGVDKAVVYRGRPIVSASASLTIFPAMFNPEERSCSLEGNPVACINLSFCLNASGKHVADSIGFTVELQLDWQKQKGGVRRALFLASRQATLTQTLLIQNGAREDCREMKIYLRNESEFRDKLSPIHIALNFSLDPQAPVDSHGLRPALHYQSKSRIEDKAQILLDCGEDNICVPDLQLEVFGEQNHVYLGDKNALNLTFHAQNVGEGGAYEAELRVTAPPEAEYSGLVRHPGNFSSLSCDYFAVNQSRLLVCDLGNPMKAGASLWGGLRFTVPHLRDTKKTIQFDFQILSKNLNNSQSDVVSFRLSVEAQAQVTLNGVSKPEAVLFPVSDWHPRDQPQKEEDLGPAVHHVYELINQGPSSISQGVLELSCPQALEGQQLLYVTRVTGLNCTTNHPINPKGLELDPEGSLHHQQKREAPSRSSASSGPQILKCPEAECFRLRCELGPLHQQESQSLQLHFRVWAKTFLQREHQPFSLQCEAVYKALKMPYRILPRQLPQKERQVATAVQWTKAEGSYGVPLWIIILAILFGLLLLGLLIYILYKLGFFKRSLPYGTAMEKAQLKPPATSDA
Chain of recombinant human α5β1 (P05556 21-798): as the sequence (P05556 21-798) above

In general, IC50 refers to the point on the concentration scale where inhibition reaches its midpoint. Consider `O=C(N[C@@H](Cc1ccc(OCCc2ccc3c(n2)NCCC3)cc1)C(=O)O)c1c(Cl)cccc1Cl` [Example 3, N-(2,6-dichlorobenzoyl)-O-[2-(5,6,7,8-tetrahydro-1,8-naphthyridin-2-yl)ethyl]-L-tyrosine], for which the IC50 was determined as 0.4 nM at recombinant human α5β1 and 2 nM in assay [1].

With `CNc1cccc(CCCc2ccc(C[C@H](NC(=O)c3c(Cl)cccc3Cl)C(=O)O)s2)n1` [Example 29, N-(2,6-dichlorobenzoyl)-3-(5-{3-[6-(methylamino)pyridin-2-yl]propyl}-2-thienyl)-L-alanine], the IC50 turned out to be 2 nM on recombinant human α5β1 and 31 nM in assay [1].

For the compound `O=C(N[C@@H](Cc1cccc(OCCNc2ccccn2)c1)C(=O)O)c1c(Cl)cccc1Cl` [N-(2,6-dichlorobenzoyl)-3-[2-(pyridin-2-ylamino)ethoxy]-L-phenylalanine], the “activity in the cell adhesion assay (b)” value in assay [1] is given as “low activity”.

In the case of `O=C(N[C@@H](Cc1cccc(OCCCCNc2ccccn2)c1)C(=O)O)c1c(Cl)cccc1Cl` [N-(2,6-dichlorobenzoyl)-3-[4-(pyridin-2-ylamino)butoxy]-L-phenylalanine], the “activity in the cell adhesion assay (b)” value in assay [1] was “low activity”.
